Patent US8710038B2, “Pyrazole kinase modulators and methods of use” (Exelixis, Inc., priority 2004, dated 2014)

Key:
c-Kit = c-Kit (Homo sapiens, UniProt P10721); assay: c-Kit biochemical assay (AlphaScreen)
Source text: (§1) AlphaScreen technology is a proximity assay which utilizes the increase in fluorescent signal occurring when donor and acceptor beads are close in proximity. Biotinylated poly(Glu,Tyr) 4:1 is used as the kinase substrate, in conjunction with streptavidin-coated donor beads and anti-phosphortyrosine antibody PY100-coated acceptor beads. Upon phosphorylation, the peptide substrate can bind to both donor and acceptor beads giving rise to an increase in fluorescence. Compounds, ATP, biotinylated poly(Glu, Tyr) and kinases are mixed in a volume of 20 uL for 1 hr at ambient temperature using Greiner 384-well white clear bottom medium binding plates. Following incubation a 10 uL solution containing […] AlphaScreen beads, 75 mM Hepes, pH 7.4, 300 mM NaCl, 120 mM EDTA, 0.3% BSA and 0.03% Tween-20 is added to each well. After 2-16 hr incubation of the beads, plates are read in a Perkin Elmer AlphaQuest reader. The IC50 values correlates well with those of radiometric assays.
c-Kit biochemical activity was assessed using AlphaScreen™ (Perkin Elmer) technology, described above. Test compounds, ATP, biotinylated poly(Glu, Tyr) and c-Kit kinase were combined in a volume of 20 μL in a 384-well white, medium binding microtiter plate (Greiner). Reaction mixtures were incubated for 1 hr at ambient temperature. Reactions were quenched by addition of 10 uL of […] AlphaScreen bead suspension containing 75 mM Hepes, pH 7.4, 300 mM NaCl, 120 mM EDTA, 0.3% BSA and 0.03% Tween-20. After 16 hr incubation at ambient temperature plates were read using an AlphaQuest reader (Perkin Elmer).

flt-3 = molecular target: T1, flt-3 (Homo sapiens, UniProt P36888); assay: flt-3 Luciferase-Coupled Chemiluminescent Kinase assay (LCCA); assay type: biochemical
T1 construct: baculovirus expressed human Flt-3 kinase domain R571-S993
T1 sequence (P36888 571-993): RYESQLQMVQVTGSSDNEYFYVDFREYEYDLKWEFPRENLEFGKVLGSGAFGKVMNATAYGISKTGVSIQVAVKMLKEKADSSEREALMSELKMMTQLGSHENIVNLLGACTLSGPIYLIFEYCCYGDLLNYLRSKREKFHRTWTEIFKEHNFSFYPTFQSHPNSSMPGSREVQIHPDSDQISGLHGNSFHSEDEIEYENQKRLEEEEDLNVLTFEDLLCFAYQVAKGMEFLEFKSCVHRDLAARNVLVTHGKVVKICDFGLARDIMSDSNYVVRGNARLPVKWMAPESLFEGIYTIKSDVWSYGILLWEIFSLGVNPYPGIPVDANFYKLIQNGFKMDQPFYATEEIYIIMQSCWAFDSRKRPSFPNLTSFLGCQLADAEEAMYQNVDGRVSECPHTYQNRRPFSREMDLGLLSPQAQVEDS
Experimental: (§2) In the LCCA assays, kinase activity is measured as the percent ATP consumed following the kinase reaction using luciferase-luciferin-coupled chemiluminescence. Greiner 384-well white, clear bottom, medium-binding plates are used for LCCA. Briefly, the kinase reaction is initiated by mixing compounds, ATP and kinase in a 20 uL volume. The mixture is incubated at ambient temperature for 2-4 hrs. At the end of the kinase reaction, a 20 uL luciferase-luciferin mix is added and the chemiluminescent signal is read using a Wallac Victor^2 reader. The luciferase-luciferin mix consists of 50 mM HEPES, pH 7.8, 8.5 ug/mL oxalic acid (pH 7.8), 5 (or 50) mM DTT, 0.4% Triton X-100, 0.25 mg/mL coenzyme A, 63 uM AMP, 28 ug/mL luciferin and 40,000 units of light/mL luciferase. For the LCCA assays, total ATP consumption has been standardized to 25-45% and the IC50 values correlates well with those determined by radiometric assays.
Flt-3 biochemical activity was assessed using a Luciferase-Coupled Chemiluminescent Kinase assay (LCCA) format. Kinase activity was measured as the percent ATP remaining following the kinase reaction. Remaining ATP was detected by luciferase-luciferin-coupled chemiluminescence. Specifically, the reaction was initiated by mixing test compounds, 5 μM ATP, 3 μM poly-EY and 5 nM Flt-3 (baculovirus expressed human Flt-3 kinase domain R571-S993) in a 20 uL assay buffer (20 mM Tris-HCL pH7.5, 10 mM MgCl2, 0.01% Triton X-100, 1 mM DTT, 2 mM MnCl2). The mixture is incubated at ambient temperature for 3 hours after which 20 uL luciferase-luciferin mix is added and the chemiluminescent signal read using a Wallac Victor^2 reader. The luciferase-luciferin mix consists of 50 mM HEPES, pH 7.8, 8.5 ug/mL oxalic acid (pH 7.8), 5 (or 50) mM DTT, 0.4% Triton X-100, 0.25 mg/mL coenzyme A, 63 uM AMP, 28 ug/mL luciferin and 40,000 units of light/mL luciferase.

EphB4 = molecular target: T2, EphB4 (Homo sapiens, UniProt P54760); assay: EphB4 kinase inhibition assay; assay type: biochemical
T2 sequence (P54760 16-987): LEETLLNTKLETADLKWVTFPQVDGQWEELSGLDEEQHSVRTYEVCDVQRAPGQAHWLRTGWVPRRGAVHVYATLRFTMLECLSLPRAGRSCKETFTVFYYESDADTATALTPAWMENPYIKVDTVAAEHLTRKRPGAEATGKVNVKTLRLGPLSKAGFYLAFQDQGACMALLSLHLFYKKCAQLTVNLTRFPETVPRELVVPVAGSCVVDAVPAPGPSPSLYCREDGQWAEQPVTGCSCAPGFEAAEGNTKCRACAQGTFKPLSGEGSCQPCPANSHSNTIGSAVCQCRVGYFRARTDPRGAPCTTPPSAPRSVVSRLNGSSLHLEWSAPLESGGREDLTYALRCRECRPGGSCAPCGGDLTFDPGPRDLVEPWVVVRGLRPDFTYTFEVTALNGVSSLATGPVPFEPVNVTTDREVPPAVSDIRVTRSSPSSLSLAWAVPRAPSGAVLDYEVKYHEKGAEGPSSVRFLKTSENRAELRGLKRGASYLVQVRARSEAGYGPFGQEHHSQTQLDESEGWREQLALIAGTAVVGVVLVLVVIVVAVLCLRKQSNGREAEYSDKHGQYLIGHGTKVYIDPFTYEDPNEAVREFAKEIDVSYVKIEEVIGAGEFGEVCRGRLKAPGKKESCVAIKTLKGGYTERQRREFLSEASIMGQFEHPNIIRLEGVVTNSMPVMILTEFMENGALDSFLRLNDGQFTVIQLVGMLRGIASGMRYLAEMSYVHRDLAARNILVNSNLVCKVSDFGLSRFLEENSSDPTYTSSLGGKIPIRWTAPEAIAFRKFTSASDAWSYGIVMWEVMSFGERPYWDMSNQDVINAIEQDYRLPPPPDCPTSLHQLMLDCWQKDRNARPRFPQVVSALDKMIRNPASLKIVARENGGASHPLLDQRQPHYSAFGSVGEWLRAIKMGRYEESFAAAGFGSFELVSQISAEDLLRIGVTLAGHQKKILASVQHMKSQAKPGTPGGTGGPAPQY
Experimental: (§3) Kinase activity and compound inhibition are investigated using one or more of the three assay formats described below. The ATP concentrations for each assay are selected to be close to the Michaelis-Menten constant (KM) for each individual kinase. Dose-response experiments are performed at 10 different inhibitor concentrations in a 384-well plate format. The data are fitted to four-parameter equation (2) below; where Y is the observed signal, X is the inhibitor concentration, Min is the background signal in the absence of enzyme (0% enzyme activity), Max is the signal in the absence of inhibitor (100% enzyme activity), IC50 is the inhibitor concentration at 50% enzyme inhibition and H represents the empirical Hill's slope to measure the cooperativity. Typically H is close to unity. Y=Min+(Max−Min)/(1+(X/IC50)^H) Equation (2) ^33P Phosphoryl Transfer Assay: […]
(§4) Greiner 384-well white, clear bottom, high binding plates are coated with 2 μg/well of protein or peptide substrate in a 50 μL volume overnight at ambient temperature. The coating buffer typically contains 40 μg/mL substrate, 22.5 mM Na2CO3, 27.5 mM NaHCO3, 150 mM NaCl and 3 mM NaN3. The coating solution is aspirated and the plates are washed once with 50 μL of assay buffer and padded dry. Subsequently compounds and enzymes are mixed with γ^33P-ATP (3.3 μCi/nmol) in a total volume of 20 uL in suitable assay buffers. The mixture is incubated at ambient temperature for 1.5-2.5 hrs and terminated by aspiration using a Molecular Devices EMBLA 96-head plate washer. The plates are subsequently washed 6-12 times with PBST or TBS buffer. Scintillation fluid (50 μl/well) is then added, the plates are sealed and activity assessed by liquid scintillation spectrometry using a Perkin Elmer MicroBeta TriLux.
as §2, §1

EGFR = EGFR (Homo sapiens, UniProt P00533); assay: EGFR kinase inhibition assay; assay type: biochemical
Experimental: as §3, §4, §2, §1

c-Kit, sequence (P10721 26-976): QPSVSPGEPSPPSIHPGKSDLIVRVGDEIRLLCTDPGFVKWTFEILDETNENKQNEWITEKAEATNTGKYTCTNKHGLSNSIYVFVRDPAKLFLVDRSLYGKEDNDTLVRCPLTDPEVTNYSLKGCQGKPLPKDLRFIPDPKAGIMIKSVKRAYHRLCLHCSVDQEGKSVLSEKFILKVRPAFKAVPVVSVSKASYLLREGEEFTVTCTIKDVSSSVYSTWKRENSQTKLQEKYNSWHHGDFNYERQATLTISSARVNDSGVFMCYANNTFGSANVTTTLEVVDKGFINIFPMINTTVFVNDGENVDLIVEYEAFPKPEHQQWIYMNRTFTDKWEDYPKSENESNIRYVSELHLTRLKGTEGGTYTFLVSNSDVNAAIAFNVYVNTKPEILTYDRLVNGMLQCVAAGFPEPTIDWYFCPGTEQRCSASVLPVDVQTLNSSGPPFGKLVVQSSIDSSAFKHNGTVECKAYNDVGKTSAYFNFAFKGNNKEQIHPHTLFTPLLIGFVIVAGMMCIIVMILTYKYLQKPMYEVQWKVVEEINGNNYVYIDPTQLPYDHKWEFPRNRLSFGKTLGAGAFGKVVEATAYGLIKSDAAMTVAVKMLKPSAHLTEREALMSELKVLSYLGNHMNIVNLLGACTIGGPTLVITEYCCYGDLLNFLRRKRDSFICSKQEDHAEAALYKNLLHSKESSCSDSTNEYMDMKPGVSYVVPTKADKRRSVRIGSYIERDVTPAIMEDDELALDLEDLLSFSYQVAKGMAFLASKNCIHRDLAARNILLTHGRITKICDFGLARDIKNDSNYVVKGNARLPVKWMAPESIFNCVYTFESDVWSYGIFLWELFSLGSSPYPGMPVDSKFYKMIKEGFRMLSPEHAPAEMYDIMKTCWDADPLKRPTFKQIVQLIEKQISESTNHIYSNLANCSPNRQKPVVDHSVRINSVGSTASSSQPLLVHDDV
EGFR, sequence (P00533 25-1210, species assumed): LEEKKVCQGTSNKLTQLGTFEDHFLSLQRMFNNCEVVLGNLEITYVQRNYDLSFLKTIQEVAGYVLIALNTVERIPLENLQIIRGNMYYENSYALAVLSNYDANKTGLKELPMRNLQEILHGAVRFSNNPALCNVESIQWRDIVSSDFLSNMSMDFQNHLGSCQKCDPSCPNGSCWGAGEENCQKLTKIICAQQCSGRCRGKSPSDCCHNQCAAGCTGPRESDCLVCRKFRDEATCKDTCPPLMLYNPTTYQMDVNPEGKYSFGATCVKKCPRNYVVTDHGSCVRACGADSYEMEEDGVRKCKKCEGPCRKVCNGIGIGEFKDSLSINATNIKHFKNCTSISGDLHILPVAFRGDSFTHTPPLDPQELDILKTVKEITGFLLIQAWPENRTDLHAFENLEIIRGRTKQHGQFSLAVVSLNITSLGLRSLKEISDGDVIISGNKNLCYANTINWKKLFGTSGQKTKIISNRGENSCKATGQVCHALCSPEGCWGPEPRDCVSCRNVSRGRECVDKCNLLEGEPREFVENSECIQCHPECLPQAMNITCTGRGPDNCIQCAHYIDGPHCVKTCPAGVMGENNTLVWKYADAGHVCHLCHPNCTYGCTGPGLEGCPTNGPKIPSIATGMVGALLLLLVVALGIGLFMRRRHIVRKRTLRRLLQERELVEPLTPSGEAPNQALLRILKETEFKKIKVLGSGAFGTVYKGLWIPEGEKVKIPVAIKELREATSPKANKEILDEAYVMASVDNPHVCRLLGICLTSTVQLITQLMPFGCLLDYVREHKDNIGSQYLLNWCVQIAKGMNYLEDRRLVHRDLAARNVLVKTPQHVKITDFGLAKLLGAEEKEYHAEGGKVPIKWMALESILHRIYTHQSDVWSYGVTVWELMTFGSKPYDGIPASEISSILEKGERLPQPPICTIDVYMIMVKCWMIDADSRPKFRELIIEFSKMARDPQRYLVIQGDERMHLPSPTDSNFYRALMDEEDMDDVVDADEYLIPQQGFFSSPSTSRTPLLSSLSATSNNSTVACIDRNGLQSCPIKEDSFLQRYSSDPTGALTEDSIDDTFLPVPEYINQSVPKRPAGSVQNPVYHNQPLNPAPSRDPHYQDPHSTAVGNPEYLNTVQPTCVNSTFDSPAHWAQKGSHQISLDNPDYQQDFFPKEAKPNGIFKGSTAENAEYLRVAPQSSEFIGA

IC50 (c-Kit)	IC50 (flt-3)	IC50 (EphB4)	IC50 (EGFR)	Compound
< 50 nM	< 50 nM	500 to 5000 nM	> 5000 nM	CN1CCN(c2ccc3nc(-c4cc(/C=C/c5ccc(O)cc5)[nH]n4)[nH]c3c2)CC1 [Entry 1, 4-((E)-2-{3-[6-(4-methylpiperazin-1-yl)-1H-benzimidazol-2-yl]-1H-pyrazol-5-yl}ethenyl)phenol]
< 50 nM	< 50 nM	> 5000 nM	> 5000 nM	CCN1CCN(c2ccc3[nH]c(-c4cc(-c5ccc(NC(=O)Nc6ccc(Cl)c(C(F)(F)F)c6)cc5)[nH]n4)nc3c2)CC1 [Entry 2, N-[4-chloro-3-(trifluoromethyl)phenyl]-N′-(4-{3-[5-(4-ethylpiperazin-1-yl)-1H-benzimidazol-2-yl]-1H-pyrazol-5-yl}phenyl)urea]
< 50 nM	< 50 nM	500 to 5000 nM	> 5000 nM	CCc1cccc(NC(=O)Nc2ccc(-c3cc(-c4nc5cc(N6CCN(CC)CC6)ccc5[nH]4)n[nH]3)cc2)c1 [Entry 3, N-(3-ethylphenyl)-N′-(4-{3-[5-(4-ethylpiperazin-1-yl)-1H-benzimidazol-2-yl]-1H-pyrazol-5-yl}phenyl)urea]
< 50 nM	< 50 nM	500 to 5000 nM	> 5000 nM	CCN1CCN(c2ccc3[nH]c(-c4cc(-c5ccc(NC(=O)Nc6cccc(C(F)(F)F)c6)cc5)[nH]n4)nc3c2)CC1 [Entry 4, N-(4-{3-[5-(4-ethylpiperazin-1-yl)-1H-benzimidazol-2-yl]-1H-pyrazol-5-yl}phenyl)-N′-[3-(trifluoromethyl)phenyl]urea]
< 50 nM	< 50 nM	500 to 5000 nM	> 5000 nM	CC(=O)c1cccc(NC(=O)Nc2ccc(-c3cc(-c4nc5cc(N6CCN(C)CC6)ccc5[nH]4)n[nH]3)cc2)c1 [Entry 5, N-(3-acetylphenyl)-N′-(4-{3-[5-(4-methylpiperazin-1-yl)-1H-benzimidazol-2-yl]-1H-pyrazol-5-yl}phenyl)urea]
< 50 nM	< 50 nM	> 5000 nM	> 5000 nM	CN1CCN(c2ccc3[nH]c(-c4cc(-c5ccc(NC(=O)Nc6ccc(Cl)c(Cl)c6)cc5)[nH]n4)nc3c2)CC1 [Entry 6, N-(3,4-dichlorophenyl)-N′-(4-{3-[5-(4-methylpiperazin-1-yl)-1H-benzimidazol-2-l]-1H-pyrazol-5-yl}phenyl)urea]
< 50 nM	< 50 nM	> 5000 nM	> 5000 nM	CN1CCN(c2ccc3nc(-c4cc(-c5ccc(NC(=O)Nc6cccc(Br)c6)cc5)[nH]n4)[nH]c3c2)CC1 [Entry 7, N-(3-bromophenyl)-N′-(4-{3-[6-(4-methylpiperazin-1-yl)-1H-benzimidazol-2-yl]-1H-pyrazol-5-yl}phenyl)urea]
< 50 nM	< 50 nM	> 5000 nM	> 5000 nM	CN1CCN(c2ccc3[nH]c(-c4cc(-c5ccc(NC(=O)Nc6ccc(F)c(C(F)(F)F)c6)cc5)[nH]n4)nc3c2)CC1 [Entry 8, N-[4-fluoro-3-(trifluoromethyl)phenyl]-N′-(4-{3-[5-(4-methylpiperazin-1-yl)-1H-benzimidazol-2-yl]-1H-pyrazol-5-yl}phenyl)urea]
< 50 nM	< 50 nM	> 5000 nM	> 5000 nM	CN1CCN(c2ccc3[nH]c(-c4cc(-c5ccc(NC(=O)Nc6ccc(Oc7ccccc7)cc6)cc5)[nH]n4)nc3c2)CC1 [Entry 9, N-(4-{3-[5-(4-methylpiperazin-1-yl)-1H-benzimidazol-2-yl]-1H-pyrazol-5-yl}phenyl)-N′-[4-(phenyloxy)phenyl]urea]
< 50 nM	< 50 nM	> 5000 nM		CN1CCN(c2ccc3[nH]c(-c4cc(-c5ccc(NC(=O)Nc6cccc(Cl)c6)cc5)[nH]n4)nc3c2)CC1 [Entry 10, N-(3-chlorophenyl)-N′-(4-{3-[5-(4-methylpiperazin-1-yl)-1H-benzimidazol-2-yl]-1H-pyrazol-yl}phenyl)urea]
< 50 nM		> 5000 nM	> 5000 nM	O=C(Nc1ccccc1)Nc1ccc(-c2cc(-c3nc4ccccc4[nH]3)n[nH]2)cc1 [Entry 33, N-{4-[3-(1H-benzimidazol-2-yl)-1H-pyrazol-5-yl]phenyl}-N′-phenylurea]
